Assays:
[1] = biological target: T1, hERG cardiac potassium channel (Homo sapiens, UniProt Q12809); test: In vitro voltage clamp assay of inhibition of potassium ion current in whole cells expressing hERG; type: cell-based; settings: CHO-K1 cells stably transfected with hERG, pH 7.4, five-minute exposure
T1 construct: host or cells: CHO-K1
Description: Assay 4: In Vitro Voltage Clamp Assay of Inhibition of Potassium Ion Current in Whole Cells Expressing the hERG Cardiac Potassium Channel
CHO-K1 cells stably transfected with hERG cDNA were obtained from Gail Robertson at the University of Wisconsin. Cells were held in cryogenic storage until needed. Cells were expanded and passaged in Dulbecco's Modified Eagles Medium/F12 supplemented with 10% fetal bovine serum and 200 μg/mL geneticin. Cells were seeded onto poly-D-lysine (100 μg/mL) coated glass coverslips, in 35 mm^2 dishes (containing 2 mL medium) at a density that enabled isolated cells to be selected for whole cell voltage-clamp studies. The dishes were maintained in a humidified, 5% CO2 environment at 37° C.
Extracellular solution was prepared at least every 7 days and stored at 4° C. when not in use. […]
The coverslips on which the cells were seeded were transferred to a recording chamber and perfused continuously. […] Peak current amplitudes during the repolarization phase were determined using pClamp software. […]
Peak current amplitudes during the repolarization phase were determined using pCLAMP software. […] The normalized current means and standard errors for each condition were calculated and plotted versus the time course of the experiment. […]

[2] = Pharmacokinetic study in the rat; type: in vivo; settings: male Sprague-Dawley rats
Description: Assay 6: Pharmacokinetic Study in the Rat
Aqueous solution formulations of test compounds were prepared in 0.1% lactic acid at a pH of between about 5 and about 6. Male Sprague-Dawley rats (CD strain, Charles River Laboratories, Wilmington, Mass.) were dosed with test compounds via intravenous administration (IV) at a dose of 2.5 mg/kg or by oral gavage (PO) at a dose of 5 mg/kg. The dosing volume was 1 mL/kg for IV and 2 mL/kg for PO administration. Serial blood samples were collected from animals pre-dose, and at 2 (IV only), 5, 15, and 30 min, and at 1, 2, 4, 8, and 24 hours post-dose. Concentrations of test compounds in blood plasma were determined by liquid chromatography-mass spectrometry analysis (LC-MS/MS) (MDS SCIEX, API 4000, Applied Biosystems, Foster City, Calif.) with a lower limit of quantitation of 1 ng/mL.
Standard pharmacokinetic parameters were assessed by non-compartmental analysis (Model 201 for IV and Model 200 for PO) using WinNonlin (Version 4.0.1, Pharsight, Mountain View, Calif.). The maximum in the curve of test compound concentration in blood plasma vs. time is denoted Cmax. The area under the concentration vs. time curve from the time of dosing to the last measurable concentration (AUC(O-t)) was calculated by the linear trapezoidal rule. Oral bioavailability (F(%)), i.e. the dose-normalized ratio of AUC(O-t) for PO administration to AUC(O-t) for IV administration, can be calculated as: F(%)=AUCPO/AUCIV×DoseIV/DosePO×100%
The compounds of the invention that were tested in this assay had Cmax values between about 0.15 to about 0.35 μg/mL and AUC(0−t) values between about 0.5 to about 1.1 μg·hr/mL.

[3] = blood plasma, dosing IV 2.5 mg/kg or PO 5 mg/kg

T1 sequence (Q12809 whole entry): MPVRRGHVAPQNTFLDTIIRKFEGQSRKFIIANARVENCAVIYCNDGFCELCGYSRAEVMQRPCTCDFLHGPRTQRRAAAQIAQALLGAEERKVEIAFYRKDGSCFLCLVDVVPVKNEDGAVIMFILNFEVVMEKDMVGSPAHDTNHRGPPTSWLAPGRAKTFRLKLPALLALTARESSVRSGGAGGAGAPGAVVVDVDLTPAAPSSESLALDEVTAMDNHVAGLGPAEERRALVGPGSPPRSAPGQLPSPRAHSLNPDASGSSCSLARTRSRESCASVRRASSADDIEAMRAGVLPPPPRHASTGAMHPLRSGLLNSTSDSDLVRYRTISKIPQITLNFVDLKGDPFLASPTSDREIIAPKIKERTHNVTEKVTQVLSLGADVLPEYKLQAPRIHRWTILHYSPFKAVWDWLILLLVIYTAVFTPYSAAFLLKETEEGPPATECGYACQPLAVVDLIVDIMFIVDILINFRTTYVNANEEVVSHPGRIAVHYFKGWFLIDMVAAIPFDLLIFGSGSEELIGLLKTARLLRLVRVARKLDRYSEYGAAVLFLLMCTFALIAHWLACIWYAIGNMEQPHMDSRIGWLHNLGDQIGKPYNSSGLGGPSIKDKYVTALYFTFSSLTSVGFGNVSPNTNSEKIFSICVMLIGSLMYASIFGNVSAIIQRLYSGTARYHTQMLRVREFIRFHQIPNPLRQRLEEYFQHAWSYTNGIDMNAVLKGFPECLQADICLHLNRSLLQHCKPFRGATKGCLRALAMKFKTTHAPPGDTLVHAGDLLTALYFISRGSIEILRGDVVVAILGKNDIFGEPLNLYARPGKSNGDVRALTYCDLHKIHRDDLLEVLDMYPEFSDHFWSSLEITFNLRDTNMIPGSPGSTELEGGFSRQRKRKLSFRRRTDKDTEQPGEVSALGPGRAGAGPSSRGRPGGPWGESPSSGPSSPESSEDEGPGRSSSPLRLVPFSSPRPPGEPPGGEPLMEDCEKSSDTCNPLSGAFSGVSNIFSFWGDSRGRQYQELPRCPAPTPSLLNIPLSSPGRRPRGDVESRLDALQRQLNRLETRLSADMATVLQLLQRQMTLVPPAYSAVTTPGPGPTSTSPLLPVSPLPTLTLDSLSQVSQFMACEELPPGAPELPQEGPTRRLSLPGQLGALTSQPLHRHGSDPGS

Question: What does the source list for `CC(C)n1c(=O)n(C(=O)N[C@H]2C[C@H]3CC[C@@H](C2)N3CCCOC(=O)N2CCN(C(=O)C3CCCO3)CC2)c2ccccc21` (stereo partly drawn) [Example 1, 4-(tetrahydrofuran-2-carbonyl)piperazine-1-carboxylic acid 3-{(1S,3R,5R)-3-[(3-isopropyl-2-oxo-2,3-dihydrobenzoimidazole-1-carbonyl)amino]-8-aza-bicyclo[3.2.1]oct-8-yl}propyl ester]?
Answer: inhibition at 5 min, 3 µM [1]: ~9%; AUC(0-t) [2, 3]: 970 ng·h/mL; Cmax [2, 3]: 320 ng/mL; bioavailability ([2]; plasma, PO 5 mg/kg vs IV 2.5 mg/kg, dose-normalized AUC ratio, read-out: oral bioavailability F(%)): 55%

— patent US7851467B2, “Carbamate compounds as 5-HT4 receptor agonists” (Theravance, Inc., priority 2005, dated 2010)
